Tests used:
Type in all cases: in vivo, CD-1 mouse
reproductive period = experiment: Analysis of reproductive period change by vaginal smearing; details: during 21 days of subcutaneous injection, female CD-1 mice; nandrolone 3 mg/kg BW; compared with sesame oil control
Protocol: (§1) Next, the pig testis extracts M1 and M2 were dissolved with first solvent of 100% ethanol, and then sesame oil was added to prepare at a concentration of 1 g/ml. 100% was defined as 100-fold diluted one with the sesame oil, and then the sample was used by diluting to be a concentration of 0.1%, 1%, 10% or 50%. Each concentration (0.1%, 1%, 10%, 50% or 100%) of the pig testis extract was subcutaneously injected to CD-1 mouse of 6 to 8-week raised under physiological condition for 21 days (6 mice per each group).
As mentioned above, each concentration of the pig testis extract was subcutaneously injected to 6-health CD-1 female mice raised under physiological condition for 21 days. Vaginal smearing was performed to analyze reproductive period change during an injection. As a control group, the mice injected with only sesame oil and the mice injected with only 19-nortestosterone (3 mg/kg BW) were used to analyze the effects. At 21 days after treating, the mice were anesthetized with sodium pentobarbital and then their peripheral bloods were collected. And immediately, the mice were sacrificed by a luxation of the cervical vertebral, and a femur for obtaining bone marrow and liver tissue, ovary, and uterus for analyzing cytotoxicity were removed. Some of them were fixed for a histological analysis and some of them were stored at a deep-freezer of −80° C. […]

[1] = system: CD34 hematopoietic stem cells in bone marrow; experiment: Numerical change of CD34-marked hematopoietic stem cell using FACS; details: 0.1% extract or nandrolone injected to mice, femur bone marrow
Protocol: as §1
In the Experimental Example, CD34, which is a marker for hematopoietic stem cell, was used in order to confirm whether a pig testis extract stimulates proliferation of hematopoietic stem cells, or not. Each of 0.1% pig testis extracts M1 and M2 was injected to the mice as the above Experimental Example; then the mice were scarified; their femurs were collected; and then bone marrows were extracted by using PBS solution.
Since then, after reacting with CD34 specific antibody, CD34 hematopoietic stem cells were counted for the analysis by using a fluorescent activated cell sorter.

[2] = system: red blood cell in peripheral blood; experiment: Numerical change of RBC in peripheral blood; details: 0.1% extract or nandrolone injected to mice
Protocol: as §1
Peripheral bloods were obtained after treating each of 0.1% pig testis extracts M1 and M2 under the same condition as the above Experimental Example. Since then, the number of RBC (Red Blood Cell) was counted by using an analyzer.

In the case of `C[C@]12CC[C@H]3[C@@H](CCC4=CC(=O)CC[C@@H]43)[C@@H]1CC[C@@H]2O` [nandrolone], the “progress of reproductive period (vaginal smearing)” value (reproductive period) was “gradually irregular”, the “number of CD34 hematopoietic stem cell in bone marrow” value [1] was “significantly increased” and the “number of RBC in peripheral blood compared with control group” value [2] was “significantly increased”.

Source: US20140011781A1, “METHOD FOR TREATING OR […] USING TESTIS EXTRACT AS ACTIVE INGREDIENT” (Industry-Academic Cooperation Foundation, Yeungnam …, priority 2009, published 2014)
